Laboratory results taken from publication PMC7913925, “Design and Evaluation of a Polypeptide That Mimics the Integrin Binding Site for EDA Fibronectin to Block Profibrotic Cell Activity” (International Journal of Molecular Sciences, 2021).
Bridges are numbered along the chain shown (N, C = ends). Where no end group is shown, it is not given here.

Columns and labels:
[1] = molecular target: FN-EDA (peptide sharing sequence with the C-C′ loop of EDA-FN) (Homo sapiens, UniProt P02751); assay: Isothermal calorimetry, AF38Pep with FN-EDA; format: binding; details: 25 °C, pH 7
Protocol: Custom designed peptides were resuspended in sterile-filtered HEPES buffered saline (140 mM NaCl, 1.5 mM Na2HPO4, 50 mM HEPES; pH 7). The larger EDA-FN binding peptide was diluted to 15 µM, degassed and added to the calorimetry chamber well. Three smaller test peptides (fibronectin EDA-peptide, FN-EDA; fibronectin RGD-peptide, FN-RGD and collagen I RGD-peptide, COL-RGD) were diluted to 300 µM, degassed and each was separately loaded into the calorimetry injection needle. The chamber well temperature was kept consistent at 25 °C. Blank buffer was used to replace either the well peptide or the injection needle peptide to account for background heat generation. Isothermal titration calorimetry was performed using a MicroCal iTC200 (Malvern Panalytical, Malvern, UK) and dissociation constant (KD) and association constant (KA) were calculated using the one set of sites model fitting (with number of binding sites assumed to be 1) in MicroCal Origin Software v8.5 (Malvern Panalytical).

[2] = test system: integrin α4 protein (ITGA4); assay: Western blot total protein ITGA4; format: cell-based; details: 48 h TGF-β1, AF38Pep or TGF-β1+AF38Pep
pro-MMP2 = assay: Gelatinase zymography pro-MMP2; format: cell-based, mouse; details: 48 h, TGF-β1 10 ng/mL, AF38Pep 10 µg/mL, conditioned medium
Protocol: Conditioned media were collected from cells incubated with serum-free medium (SFM) alone, SFM containing 10 ng/mL TGF-β1, SFM containing 10 µg/mL AF38Pep, or SFM containing both 10 ng/mL TGF-β1 and 10 µg/mL AF38Pep. Conditioned medium was concentrated 10× by filtrating spin columns (Amicon Ultra-4 10 kDa MWCO, Merck Millipore) and protein was quantified by Micro BCA Protein Assay Kit (Thermo Fisher Scientific). A 1.5 mm thick 10% nonreducing acrylamide gel containing gelatin was prepared and 10 µg of sample in 5 × nonreducing buffer was loaded into the gel lanes. The gel was run at 100 V until the protein entered the stacking gel layer, then the voltage was increased to 150 V until the marker achieved resolved band separation. The gels were then washed twice for 30 min using wash buffer to remove SDS and renature the enzymes. Gels were further rinsed for 5–10 min in incubation buffer at 37 °C with agitation to activate the gelatinase reaction. Fresh incubation buffer was added, and the gels were incubated overnight at 37 °C. Gels were stained with staining solution containing Coomassie blue for between 30 min to 1 h, before rinsing with ddH2O and subsequent incubation with de-stain solution until bands could be observed. The gels were transferred to 2% acetic acid and rehydrated overnight for imaging by scanner.

## VMPYISTTPAKPCTSENCGNSWYGGFKSKNENKIYFIN (disulfide 13-18 (inferred)) [AF38Pep]
[1]
  ITC interaction (thermogram): there was a detectable interaction between AF38Pep and FN-EDA
[2]
  ITGA4 total protein: remained unaffected
pro-MMP2
  pro-MMP2 gelatinase activity: suppressed activity levels
